One data set relates to HRV-14. Put plainly: Antirhinoviral HI-HeLa Cell Culture Assay (Cell Protection Assay, XTT dye reduction). Format: cell-based, human rhinovirus (HRV) serotype-14. As to conditions: HI-HeLa cells infected with HRV-14, m.o.i. 0.13; two days; XTT; read-out: EC50. The protocol: In the Cell Protection Assay, the ability of compounds to protect cells against HRV infection was measured by the XTT dye reduction method. This method is described in Weislow, O. S., R. Kiser, D. L. Fine, J. Bader, R. H. Shoemaker, and M. R. Boyd, J. Natl. Cancer Inst. 1989, 81, 577-586, which is incorporated herein by reference.
(§1) HI-HeLa cells were infected with HRV-14 at a multiplicity of infection (m.o.i.) of 0.13 (virus particles/cell) or mock-infected with medium only. Infected or mock-infected cells were resuspended at 8×10^5 cells per mL and incubated with appropriate concentration of compounds of formulas I and II. Two days later, XTT/PMS was added to test plates and the amount of formazan produced was quantified spectrophotometrically at 450/650 nm. […] The therapeutic index (TI) was calculated by dividing the CC50 by the EC50.
(§2) All strains of human rhinovirus (HRV) for use in this assay were purchased from American Type Culture Collection (ATCC), except for HRV serotype-14, which was produced from the infectious cDNA clone, constructed and supplied to us by Dr. Roland Rueckert at the Institue for Molecular Virology, University of Wisconsin, Madison, Wisc. HRV stocks were propagated, and antiviral assays were perforemd in HI-HeLa cells (ATCC). Cells were grwon in Minimal Essential Medium, available from Life Technologies, with 10% fetal bovine serum.
The compounds were tested against control compounds WIN 51711, WIN 52084, and WIN 54954, all obtained from Sterling-Winthrop Pharmaceuticals, and control compound Pirodavir, obtained from Janssen Pharmaceuticals.

Data set [1] concerns the target T1, Recombinant Rhinovirus 3C protease (RVP) serotype-14 (Human rhinovirus 14, UniProt P03303).
T1 construct: Recombinant Rhinovirus 3C proteases from serotypes 14, 16, 2 or 89; made in house
Put plainly: Inhibition of Rhinovirus Protease (fluorescence resonance energy transfer assay), serotype 14. Format: biochemical, human rhinovirus (HRV). As to conditions: RVP serotype-14; for kobs/I: progress curves in enzyme start experiments; for Ki: 10 minute preincubation, substrate start, read-out: INHIB (Ki); for INHIB (percent inhibition): 10 minute preincubation with 50 nM RVP. On the procedure:
Stock solution (50 mM, in DMSO) of various compounds were prepared; dilutions were in the same solvent. […] Assays contained 2% DMSO, 50 mM tris pH 7.6, 1 mM EDTA, a compound at the indicated concentrations, approximately 1 μM substrate, and 50-100 nM protease. […] The kobs/I values were obtained from reactions initiated by addition of enzyme rather than substrate. RVP activity is measured in the fluorescence resonance energy transfer assay. […] In the uncleaved peptide, the EDANS fluorescence was quenched by the proximal DABCYL moeity. When the peptide was cleaved, the quenching was relieved, and activity was measured as an increase in fluorescence signal.
In the above table, all data is RVP serotype-14 unless otherwise noted in parentheses. All strains of human rhinovirus (HRV) were purchased from American Type Culture Collection (ATCC), except for serotype 14, which was produced from the infectious cDNA clone constructed and supplied to us by Dr. Roland Rueckert at the Institute for Molecular Virology, University of Wisconsin, Madison, Wisc. […] The data in the column designated kobs/I was measured from progress curves in enzyme start experiments.

Another data set deals with HI-HeLa cells. As to the kind of experiment: Cytotoxicity in mock-infected HI-HeLa cells (antirhinoviral assay, XTT). Format: cell-based. On the procedure: as §1, §2
(Formazan colour is commonly taken as a measure of viable cells.)

Setting [2] is: mock-infected HI-HeLa cells, two days, XTT, read-out: CC50.

Where two headings read alike, the source gives them in different places.

The results in this text go back to patent US6362166B1, “Antipicornaviral compounds and methods for their use and preparation” (Agouron Pharmaceuticals, Inc., priority 1996, dated 2002).

T1 sequence (P03303 1538-1719): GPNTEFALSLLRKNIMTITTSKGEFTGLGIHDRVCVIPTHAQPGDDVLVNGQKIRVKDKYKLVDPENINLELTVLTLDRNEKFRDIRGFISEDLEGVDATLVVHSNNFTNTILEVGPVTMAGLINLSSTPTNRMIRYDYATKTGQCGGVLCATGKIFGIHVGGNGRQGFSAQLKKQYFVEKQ

Regarding `CC(C)CC(NC(=O)OCc1ccccc1)C(=O)NC(Cc1ccccc1)C(=O)NC(C=CC(=O)N1CCC(O)C1)CCC(N)=O` (centres unmarked) [Compound 39], the half-maximal effective concentration (EC50) (usually the concentration at which the effect is half-maximal) in the data set with HRV-14 is greater than 320 µM. The kobs/I in data set [1] is 1,200 M-1 sec-1. Moreover, the CC50 (in general, the concentration at which the toxic effect on the cells reaches its halfway point) with HI-HeLa cells is greater than 320 µM.
For the molecule `CC(C)C[C@H](NC(=O)OCc1ccccc1)C(=O)N[C@@H](Cc1ccccc1)C(=O)N[C@H](/C=C/C(=O)c1ccco1)CCC(N)=O` [Compound 49], in the data set on HRV-14, the EC50 turned out to be 2.4 µM. Also, the kobs/I in data set [1] is reported as 460,000 M-1 sec-1. Also, in the data set on HI-HeLa cells, the CC50 amounted to 19.1 µM.
On to `CC(=O)N1CC/C(=C\[C@H](CCC(N)=O)NC(=O)[C@H](Cc2ccc(F)cc2)NC(=O)[C@H](CSc2ccccc2)NC(=O)SC2CCCC2)C1=O` [Compound 181], for which the EC50 with HRV-14 was found to be 0.1 µM. The kobs/I in data set [1] was 1,000,000 M-1 sec-1. The CC50 in the data set on HI-HeLa cells was greater than 100 µM.
Regarding `CC(C)C[C@H](NC(=O)OCc1ccccc1)C(=O)N[C@@H](Cc1ccccc1)C(=O)N[C@H](/C=C/C(=O)OCC1CCCC1)CCC(N)=O` [Compound 19, Cyclopentylmethyl-3-(CBZ-L-Leu-L-Phe-L-Gln)-E-Propenoate], in the data set on HRV-14, the EC50 was 1.35 µM. Also, in data set [1], the Ki (in general, the equilibrium dissociation constant of an inhibitor or competing ligand from its target) amounted to 35 µM and the kobs/I was 7,900 M-1 sec-1. Moreover, in the data set on HI-HeLa cells, the CC50 was greater than 100 µM.
As for `CC(C)C[C@H](NC(=O)OCc1ccccc1)C(=O)N[C@@H](Cc1ccccc1)C(=O)N[C@H](/C=C/C(=O)c1ccc2c(c1)OCO2)CCC(N)=O` [Compound 46], the EC50 with HRV-14 was determined as 3.2 µM. Besides, the kobs/I in data set [1] was 120,000 M-1 sec-1. This molecule displayed a CC50 with HI-HeLa cells of 45 µM.
As to `CC(C)C[C@H](NC(=O)OCc1ccccc1)C(=O)N[C@@H](Cc1ccccc1)C(=O)N[C@H](/C=C/C(=O)OC1CCCC1)CCC(N)=O` [Compound 18, Cyclopentyl-3-(CBZ-L-Leu-L-Phe-L-Gln)-E-Propenoate], the concentration for a half-maximal effect (EC50) in the data set with HRV-14 stood at 0.64 µM. Moreover, in data set [1], the Ki was determined as 15.3 µM and the kobs/I was 7,700 M-1 sec-1. This molecule yielded a CC50 with HI-HeLa cells greater than 100 µM.
Take `CC(=O)N1CC/C(=C\[C@H](CCC(N)=O)NC(=O)[C@H](Cc2ccccc2)NC(=O)[C@H](CC(C)C)NC(=O)OCc2ccccc2)C1=O` [Compound 164]: in the data set on HRV-14, the EC50 amounted to 0.71 µM. Besides, the kobs/I in data set [1] is on record as 155,500 M-1 sec-1. This molecule also showed a CC50 with HI-HeLa cells greater than 100 µM.
On the same counts, the results for `CCOC(=O)/C=C/[C@H](CCC(N)=O)NC(=O)[C@H](Cc1ccccc1)NC(=O)[C@H](CC(C)C)NC(=O)C(C)C` [Compound 117] are 1 µM, 18,760 M-1 sec-1 and greater than 320 µM.
For the molecule `CCOC(=O)/C=C/[C@H](CCC(N)=O)NC(=O)[C@H](Cc1ccccc1)NC(=O)OCc1ccccc1` [Compound 30, Ethyl-3-(CBZ-L-Phe-L-Gln)-E-Propenoate], in the data set with HRV-14, the EC50 was determined as 5.6 µM. Besides, in data set [1], the inhibition constant (Ki) was 373 µM and the kobs/I worked out at 430 M⁻¹ s⁻¹. It took 100 µM to reach half-maximal cytotoxicity with HI-HeLa cells (CC50).
Consider `CC(C)C[C@H](NC(=O)OCc1ccccc1)C(=O)N[C@@H](Cc1ccccc1)C(=O)N[C@H](/C=C/C(=O)N1CCCO1)CCC(N)=O` [Compound 79], for which the EC50 in the data set on HRV-14 came out at 45 µM. In addition, the kobs/I in data set [1] is 13,900 M-1 sec-1. In addition, the CC50 in the data set with HI-HeLa cells (setting [2]) is greater than 320 µM.
On the same counts, the results for `CCOC(=O)/C(C)=C/[C@H](CCC(N)=O)NC(=O)[C@H](Cc1ccc(C)cc1)NC(=O)[C@@H](NC(=O)SC1CCCC1)C(C)(C)C` [Compound 175, Ethyl-2-Methyl-3-[Cyclopentylthiocarbonyl-L-α-(t-Butyl-Gly)-L-(4-Me-Phe)-L-Gln]-E-Propenoate] are 0.18 µM, 124,000 M-1 sec-1 and greater than 100 µM.
On the same counts, the results for `CC(C)C[C@H](NC(=O)OCc1ccccc1)C(=O)N[C@@H](Cc1ccccc1)C(=O)N[C@H](/C=C/C(=O)c1ccc(C#N)cc1)CCC(N)=O` [Compound 80] are 50 µM, 200,000 M-1 sec-1 and greater than 320 µM.
Consider `CCOC(=O)/C=C/[C@H](CCC(N)=O)NC(=O)[C@H](Cc1ccccc1)NC(=O)[C@H](CC(C)C)NC(=O)c1ccc(C(=O)NC)cc1` [Compound 129], for which the EC50 with HRV-14 is greater than 320 µM. Also, the kobs/I in data set [1] was 230,000 M-1 sec-1. Further, the CC50 with HI-HeLa cells is greater than 320 µM.
Consider `CCOC(=O)/C=C/[C@H](CNC(N)=O)NC(=O)[C@H](Cc1ccccc1)NC(=O)[C@H](CC(C)C)NC(=O)OCc1ccccc1` [Compound 16, Ethyl-3-[CBZ-L-Leu-L-Phe-L-(N-carbamyl-amino)-Ala]-E-Propenoate], for which the EC50 in the data set with HRV-14 was 32 µM. Moreover, the “INHIB (percent inhibition)” value in data set [1] ([…] compound) is on record as 40(0.25) percent. Also, in data set [1], the kobs/I is given as 3,500 M-1 sec-1. In the data set on HI-HeLa cells, this molecule yielded a CC50 greater than 100 µM.
Take `COc1ccc(C(=O)/C=C/[C@H](CCC(N)=O)NC(=O)[C@H](Cc2ccccc2)NC(=O)[C@H](CC(C)C)NC(=O)OCc2ccccc2)cc1` [Compound 42]: in the data set on HRV-14, the EC50 is 22.4 µM. Also, the kobs/I in data set [1] is given as 150,000 M-1 sec-1. In the data set on HI-HeLa cells, this molecule yielded a CC50 of 100 µM.
The corresponding values for `CCOC(=O)C=CC(CCC(N)=O)NC(=O)C(Cc1ccccc1)NC(=O)C(NC(=O)OCc1ccccc1)c1ccccc1` (centres unmarked) [Compound 71] are 14.1 µM, 20,650 M-1 sec-1 and greater than 320 µM.
Turning to `CCOC(=O)/C=C/[C@H](CCC(N)=O)NC(=O)[C@H](Cc1ccc(Cl)cc1)NC(=O)c1cc2c(OC)cccc2[nH]1` [Compound 26, Ethyl-3-[N-(4-Methoxyindole-2-Carbonyl)-L-(4-Cl-Phe)-L-Gln]-E-Propenoate], the 50% effective concentration (EC50) in the data set with HRV-14 was 2 µM. The “INHIB (percent inhibition)” value in data set [1] (0.1 μM compound) is 52(0.1) percent. Moreover, the kobs/I in data set [1] is given as 5,400 M-1 sec-1. The CC50 in the data set on HI-HeLa cells was 44.7 µM.
In the case of `CC(C)C[C@H](NC(=O)OCc1ccccc1)C(=O)N[C@@H](Cc1ccccc1)C(=O)N[C@H](/C=C/c1ccno1)CCC(N)=O` [Compound 150], in the data set with HRV-14, the EC50 was greater than 320 µM. Also, in data set [1], the kobs/I is 573 M⁻¹ s⁻¹. Moreover, in the data set on HI-HeLa cells (setting [2]), the CC50 was greater than 320 µM.
On to `CCOC(=O)/C=C/[C@H](CCC(N)=O)NC(=O)[C@H](Cc1ccc(F)cc1)NC(=O)[C@@H](NC(=O)SC1CCCC1)C(C)(C)Sc1ccc([N+](=O)[O-])cc1` [Compound 185], for which the EC50 in the data set on HRV-14 worked out at 0.5 µM. In addition, in data set [1], the kobs/I is 600,000 M-1 sec-1. Besides, the CC50 with HI-HeLa cells was greater than 100 µM.
The corresponding values for `CCOC(=O)/C=C/[C@H](COC(=O)NC(=O)CCl)NC(=O)[C@H](Cc1ccccc1)NC(=O)[C@H](CC(C)C)NC(=O)OCc1ccccc1` [Compound 122] are 1.78 µM, 1,252 M-1 sec-1 and 10 µM.
Turning to `CCOC(=O)/C=C/[C@H](CCC(N)=O)NC(=O)[C@H](Cc1ccccc1)NS(=O)(=O)Cc1ccccc1` [Compound 32, Ethyl-3-[N-(Benzylsulfonyl)-L-Phe-L-Gln]-E-Propenoate], the concentration giving a half-maximal response (EC50) in the data set on HRV-14 came out at 10 µM. Moreover, the kobs/I in data set [1] was 280 M⁻¹ s⁻¹. The molecule also came in with a CC50 with HI-HeLa cells greater than 100 µM.
The corresponding values for `CCN(CC)c1ccc(C(=O)/C=C/[C@H](CCC(N)=O)NC(=O)[C@H](Cc2ccccc2)NC(=O)[C@H](CC(C)C)NC(=O)OCc2ccccc2)cc1` [Compound 43] are 10 µM, 4,500 M-1 sec-1 and 18 µM.
Regarding `CC(C)C[C@H](NC(=O)OCc1ccccc1)C(=O)N[C@@H](Cc1ccccc1)C(=O)N[C@H](/C=C/C(=O)N1CCc2cccc(S(C)(=O)=O)c21)CCC(N)=O` [Compound 95], in the data set on HRV-14, the EC50 is greater than 320 µM. Besides, the kobs/I in data set [1] is less than 1000 M⁻¹ s⁻¹. Further, the CC50 in the data set on HI-HeLa cells (setting [2]) is greater than 320 µM.
For the molecule `CCOC(=O)/C=C/[C@H](CCC(N)=O)NC(=O)[C@H](Cc1ccc(C(N)=O)cc1)NC(=O)[C@H](CC(C)C)NC(=O)OCc1ccccc1` [Compound 133], in the data set with HRV-14, the EC50 was greater than 177 µM. In data set [1], the kobs/I was 9,600 M-1 sec-1. For the same molecule, the CC50 in the data set on HI-HeLa cells worked out at 177 µM.
